For assay [1], the system named is CSPG. Put plainly: CSPG neoepitope immunostaining of human nerve segments treated with chondroitinase. The method, then:
Axonal regeneration was assessed by GAP-43 immunofluorescence and digital image analysis. Tissue sections mounted on slides were washed with PBS and then treated with 0.5% Triton X-100 in PBS for 10 min. The sections were treated with blocking buffer (10% serum in PBS+0.1% Triton X-100) and then incubated overnight at 4° C. with primary antibodies (diluted in blocking buffer). Bound antibodies were labeled with swine anti-rabbit immunoglobulins (DAKO CORPORATION, Carpinteria, Calif.) or goat anti-mouse immunoglobulins (Sigma) FITC-conjugated secondary antibodies for 1 h at room temperature in darkness. The anti-mouse secondary antibody was preadsorbed with rat serum prior to use. The sections were washed, postfixed with 4% paraformaldehyde in PBS, rinsed, and coverslipped in fluorescent mounting media. Affinity-purified rabbit anti-GAP-43 peptide antibody was produced using known methods (Ferguson T A et al. [2000] Mol Cell Neurosci, 16:157-167) and was used at 2 μg/ml. Polyclonal antibody 1918 (CHEMICON INTERNATIONAL, Temecula, Calif.) (1:1000) binds only to the unsaturated disaccharide unit that remains attached to the linkage region of CSPG core protein exposed by digestion with chondroitinase ABC (Bertolotto A et al. [1986] J Neurol Sci 73:233-244). Polyclonal anti-EHS laminin antibody (Sigma) (1:1000) was used to label basal laminae. […]

In the next assay the test system is chick DRG neurons. Kind of assay: Cryoculture assay using human nerve segments. In kind it is cell-based. To be noted: 24 h. The method, then:
Cryoculture is a neurite outgrowth assay in which neurons are cultured directly on fresh/frozen nerve sections and was performed as described previously (Ferguson T A et al. [2000] Mol Cell Neurosci, 16:157-167). Briefly, chondroitinase- and vehicle-treated nerve segments were sectioned at 20 μm, mounted on sterile, aminopropyltriethoxysilane (APTS)-coated coverslips and stored at −20° C. until used. Where indicated, sections were treated with chondroitinase ABC (0.1 unit/ml) or vehicle (50 mM Tris-HCl, pH 8.0), containing 50 mM NaCl) for 2 h at 37° C. Purified dorsal root ganglionic (DRG) neurons from day 8 chick embryos were seeded directly on the nerve sections in a defined N2 medium (Bottenstein J E et al. [1980] Exp Cell Res 125:183-190) containing 10 ng/ml nerve growth factor. Cryoculture assays were terminated after 24 h of incubation by fixation with 100% methanol. Neuritic growth by DRG neurons was accessed by GAP-43 immunofluorescent labeling. Epifluorescent photomicrographs were acquired as described for tissue sections. Neurite lengths were measured directly using IMAGE-PRO PLUS software (MEDIA CYBERNETICS, Silver Springs, Md.). At least 250 neurons with neurites greater than one cell body (˜15 μm) were scored for each condition in each experiment.
Many of the experiments described in the examples above performed using rat nerves also have been replicated using human nerve. […]

For assay [2], the system named is rat sciatic nerve. Put plainly: Human-to-rat acellular nerve xenograft model (GAP-43 axonal profiles). The settings on record: 8-day acellular human nerve grafts in rat, 2 host rats. It counts as in vivo. The method, then: In the following experiments, the hypothesis that chondroitinase treatment improves nerve regeneration through acellular human nerve grafts in a rat xenograft model was tested. Subunits (individual fascicles) taken from human nerves were treated en bloc with vehicle or chondroitinase ABC. Ten-mm interpositional nerve grafts were joined to the rat host sciatic nerve by epineurial neurorrhaphy reinforced with fibrin glue. Each of 2 host rats received bilateral grafts, one vehicle-treated and one chondroitinase-treated graft. Regeneration was initially examined after 8 days. Axonal growth was assessed at specified spatial intervals within the graft by scoring GAP-43-immunopositive profiles in transverse sections.

Assay [3] deals with CSPG. Kind of assay: CSPG-neoepitope immunolabeling of injured sciatic nerve after in vivo chondroitinase injection. More on the design: species or system rat. To be noted: single injection 1 U in 2 μl, 2 mm distal to injury; 4 days (transection) or 2 days (crush). The method, then:
(§1) All surgical procedures were performed according to Institutional Animal Care and Use Committee (IACUC) approved protocols. Young adult SPRAGUE DAWLEY rats (HARLAN Indianapolis, Ind.) were deeply anesthetized with xylazine (15 mg/kg, i.m.) followed by ketamine-HCl (110 mg/kg, i.p.). Six animals received bilateral nerve crush injuries. Sciatic nerves were exposed and then crushed with firm pressure for thirty seconds with a DUMONT #5 forceps at a site 4 mm distal to the tendon of the internal obdurator. The crush site was marked with an epineurial suture. In a separate set of experiments, eight rats received bilateral sciatic nerve transection injuries using serrated scissors. The proximal and distal stumps were […] by epineurial neurorrhaphy using 9-0 ETHILON sutures. Fibrin glue (fibrinogen and thrombin) was then applied to stabilize the union. In both injury models, the right sciatic nerves were injected 2-mm distal to the injury with chondroitinase ABC (1 U in 2 μl) (high-purity, protease-free; SIGMA CHEMICAL CO., St. Louis, Miss.). Left sciatic nerves (with the same injury as the right side) were injected with vehicle alone (0.1% bovine serum albumin in PBS). Muscle incisions were sutured and the skin closed with metal clips. […]
Axonal regeneration was assessed by GAP-43 immunofluorescence and digital image analysis. […]

Assay [4] relates to rat sciatic nerve. Put plainly: Axonal regeneration after bilateral sciatic nerve crush injury (axonotmesis). In kind it is in vivo. To be noted: two days after injury, 1 U in 2 μl injected, n=6. The method, then: as §1, with “PBS).” for “PBS). Muscle incisions were sutured and the skin closed with metal clips.”
The hypothesis that chondroitinase treatment improves axonal growth through the site of nerve crush injury was tested. […] Regenerating axons were labeled by GAP-43 immunofluorescence and scored by digital image analysis. […]

With chondroitinase ABC, in the assay with CSPG [1], the “CSPG side chain degradation (neoepitope labeling)” value is “effectively degraded”. The “growth-promoting properties of human nerves” value with chick DRG neurons is recorded as “increased”. In addition, in the assay with rat sciatic nerve [2], the “average number of axons (GAP-43-immunopositive profiles) entering grafts vs control grafts” value is reported as “more than three-fold greater”. Besides, in the assay on CSPG [3], the “CSPG degradation in extracellular matrix around the injection site” value was “substantially, if not completely, degraded CSPG”. Moreover, the “axonal regeneration after nerve crush injury (GAP-43 immunoreactivity)” value in the assay on rat sciatic nerve [4] is “no significant difference”; in the assay with rat sciatic nerve [4] (listed as chondroitinase), “not significantly effected”.

The values above are taken from US10441681B2, “Materials and methods for nerve grafting” (University of Florida Research Foundation, Inc., priority 2001, dated 2019).
